Reference: patent publication US20100168112A1, “2-Substituted and 4-substituted aryl nitrone compounds” (RENOVIS, INC., priority 2004, published 2010)
Like-named read-outs stand apart in the source and are kept apart here.

Legend:
[1] = Brain penetration after single oral dose in rats; assay type: in vivo; conditions: Sprague-Dawley, rat, single oral dose (compound 26 5 mg/kg, 62 15 mg/kg, 20, 63 and 66 50 mg/kg), at or near Tmax
Method: Nitrone compounds of this invention were formulated individually as suspensions and administered as a single dose to Sprague-Dawley rats via oral gavage (compound 26 at 5 mg/kg, compound 62 at 15 mg/kg, compounds 20, 63 and 66 at 50 mg/kg). Plasma samples were obtained at or near Tmax projected at the given dose for each compound and the animals were euthanized using carbon dioxide. Immediately following euthanization, cerebrospinal fluid (CSF) was obtained by cisternal puncture of the atlanto-occipital membrane and drawn from the magnum cisternum. The brain was first perfused intracardially with ˜150 mL of ice-cold 0.1 M Phosphate Buffered Saline (PBS) at pH7.4. Following the removal of the dura, the brain was weighed. The brain was then dissected into smaller pieces and rinsed twice with ˜10 mL PBS. The brain, CSF, and plasma samples were frozen on dry ice and stored at −80° C. before analysis. CSF and plasma samples were subjected to a protein precipitation method prior to LC/MS/MS analysis. Blank rat plasma and CSF were used accordingly for diluting the samples when needed. Bioanalytical standard curves were prepared by spiking a stock solution of the nitrone compound to blank rat plasma or CSF to achieve a quantitation curve range and analyzed the standards in the same manner as the samples. Brain samples underwent homogenization in 2 mL water and liquid-liquid extraction with ethyl acetate three times. The combined organic phase for each sample was evaporated under a stream of nitrogen at 40° C. and the residues were reconstituted with an appropriate amount of mobile phase B (referring to LC/MS/MS method section). A bioanalytical standard curve for brain analysis was prepared by spiking 100 μL of stock solution directly into sliced blank rat brain purchased from Pelfreez. The spiked brains then underwent the same processing procedures for the dosed samples.
The reconstituted samples were vortexed and incubated to fully dissolve the analytes. The samples were centrifuged, and then further diluted with Mobile phase B if necessary before LC/MS/MS analysis. Nitrone compound levels in the brain were calculated based on the measured concentration, the volume of reconstitution and brain weight to yield a unit of ng (of compound) per g of brain. To calculate the brain/plasma ratio (w/v), it was assumed that 1 g of brain tissue takes approximately 1 mL of volume.

[2] = tested on: carrageenan-sensitized inflammatory model of rat; assay: Carrageenan-sensitized thermal hyperalgesia (Hargreaves test); assay type: in vivo; conditions: 50 mg/kg oral; for PWL (thermal paw withdrawal latency), carrageenan paw: mean ± SEM
Method: In this experiment, animals were habituated to the test environment for 2 days. Each rat was individually placed on a transparent perplex glass floor, covered with a plastic box (10×10×18 cm), and allowed 0.5-1 hr to habituate. After the acclimation period, basal thermal withdrawal latency (PWL, time interval between heat stimulation and paw withdrawal) was measured by exposing the plantar surface of a rats hind paw to a beam of radiant heat generated from a focused projection bulb through a transparent perplex glass surface (Hargreaves test; Hargreaves, K. R., Dubner, R., Brown, F., Flores, C. & Joris, J.: A new and sensitive method for measuring thermal nociception in cutaneous hyperalgesia. Pain, 32: 77-88, 1988). The PWL was averaged from at least two trials separated by a 2 min interval. A timer was used to measure the withdrawal latency and a cut of time of 20-sec was used to prevent tissue damage. Before the test on STZ-diabetic rats, the intensity of the radiating heat was adjusted to the level that caused naive animal to withdraw its paw at around 10 seconds.
After a stable basal PWL was obtained, the animals were briefly anesthetized with isoflurane (2-5% to effect). One side of their hind paws received an intraplantar injection of lambda carrageenan (2 mg in 100 microliter sterile saline, Sigma, St. Louis, Mo.). The contralateral side received no injection and served as an intra-subject control. The animals were then returned to their home cages and transferred to the individual testing chambers for heat thermal hyperalgesic testing, 2.5 hr after carrageenan injection. 3-hr post-carrageenan injection, PWLs of both hind paws (i.e., ipsilateral and contralateral) were measured at several time points post-carrageenan injection (15-min to 24-hr).
For compound testing, rats were randomly enrolled into groups that, immediately after the 3-hr post-carrageenan PWL was obtained, received oral dosing of Compound 62 (50 mg/kg), Compound 63 (50 mg/kg), vehicle (1 ml/kg), or indomethacin (30 mg/kg). Compound 62 and Compound 63 were prepared as a suspension in vehicle (96% of 0.5% CMC and 4% of 10% Tween 80) while indomethacin was prepared as a 30 mg/ml in normal saline.

[3] = Microsomal stability in human liver microsomes; assay type: in vitro ADME; conditions: NADPH, 37° C.
In short: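 Compound (~500 ng/ml) incubated at 37°C for up to 30 min with 0.5 mg/ml microsomal protein and 1 mM NADPH in 0.1 M PBS pH7.4, after 3–5 min preincubation without NADPH. Sprague-Dawley rat or human microsomes; acetonitrile-quenched timepoints analysed by LC/MS/MS for half-life or percent remaining.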

[4] = Microsomal stability in rat liver microsomes; assay type: in vitro ADME; conditions: rat liver microsomes 0.5 mg/ml, 1 mM NADPH, ~500 ng/ml compound, 37° C.
Method: Frozen Sprague-Dawley rat liver microsomes (RLM) were thawed on ice and gently mixed before use. The final reaction mixture consisted of a nitrone compound of this invention (at ˜500 ng/ml), 1 mM NADPH, and 0.5 mg/ml of RLM protein in 0.1 M PBS (pH7.4), with organic solvent concentration not exceeding 1% (v/v). Per set of incubations, a positive control compound was included. The mixture was first pre-incubated 3 to 5 minutes at 37° C. without NADPH, and the reaction was then initialized by the addition of NADPH and incubated at 37° C. for up to 30 minutes. An aliquot of the reaction mixture was sampled at the initiation of the reaction and at designated time after reaction started. The drawn samples were quenched with acetonitrile, diluted with mobile phase to ensure the detection of test article in the linear range, and analyzed by LC/MS/MS. Half-life or percentage of remaining nitrone compound was calculated using standard methods. A similar method, or a slight variation of it, was used to test the stability of nitrones in human liver microsomes (HLM).

[5] = CSF and plasma, read-out: CSF/Plasma (%)
[6] = brain and plasma, 1 g brain assumed 1 mL, read-out: Brain/Plasma (%)
[7] = post-dosing time 0 min (3 hr post-carrageenan)

Compound	Kp [1, 5]	Kp [1, 6]	effect on carrageenan-sensitized heat hyperalgesia compared to vehicle-treated carrageenan-paw (in words) [2]	PWL (thermal paw withdrawal latency), carrageenan paw [2, 7] [s]	PWL (thermal paw withdrawal latency), carrageenan paw ([2]; post-dosing time 15 min) [s]	PWL (thermal paw withdrawal latency), carrageenan paw ([2]; post-dosing time 120 min) [s]	PWL (thermal paw withdrawal latency), carrageenan paw ([2]; post-dosing time 240 min) [s]	PWL (thermal paw withdrawal latency), carrageenan paw ([2]; post-dosing time 1400 min) [s]	% of Nitrone Remaining at 30 min (Human) [3] [%]	% of Nitrone Remaining at 30 min (Rat) [4] [%]	PWL (thermal paw withdrawal latency), carrageenan paw ([2]; post-dosing time 60 min) [s]	PWL (thermal paw withdrawal latency), carrageenan paw ([2]; post-dosing time 180 min) [s]
CC(C)(C)/[N+]([O-])=C/c1ccccc1S(C)(=O)=O [Compound 66, N-tert-Butyl-C-(2-methanesulfonylphenyl)nitrone]	0.936	0.224	–	–	–	–	–	–	–	–	–	–
CC(C)(C)/[N+]([O-])=C/c1ccc(S(C)(=O)=O)cc1 [Compound 62, N-tert-Butyl-C-[4-(methanesulfonyl)phenyl]nitrone]	0.786	0.625	statistically significant effect	4.65 ± 0.63	7.33 ± 1.43	7.55 ± 1.08	5.38 ± 1.11	5.33 ± 1.09	100	100	–	–
CC(C)(C)/[N+]([O-])=C/c1ccc(S(=O)(=O)Nc2cccnc2)cc1 [Compound 26, N-(tert-Butyl)-C-[4-(pyridin-3-ylsulfamoyl)phenyl]nitrone]	0.0012	0.0056	–	–	–	–	–	–	–	–	–	–
CC(C)(C)/[N+]([O-])=C/c1ccc(S(N)(=O)=O)cc1 [Compound 20, N-(tert-Butyl)-C-[4-(sulfamoyl)phenyl]nitrone]	0.144	0.229	–	–	–	–	–	–	–	–	–	–
CCS(=O)(=O)c1ccc(/C=[N+](\[O-])C(C)(C)C)c(S(=O)(=O)CC)c1 [Compound 64, N-tert-Butyl-C-(2,4-bis-ethanesulfonylphenyl)nitrone]	–	–	–	–	–	–	–	–	100	100	–	–
CC(C)(C)/[N+]([O-])=C/c1ccc(S(C)(=O)=O)cc1S(C)(=O)=O [Compound 63, N-tert-Butyl-C-(2,4-bis-methanesulfonylphenyl)nitrone]	0.336	0.189	statistically significant effect	4.98 ± 0.85	4.93 ± 1.22	–	–	5.70 ± 0.71	99	97	4.15 ± 1.04	3.65 ± 0.64
